Key:
Type in all cases: in vivo, mouse
[1] = test system: C57BL/6J mice; assay: Experiment 2: high-fat diet with first compounds, body mass and inguinal/perigonadal fat pad mass; details: for Total Body Mass, Males / Inguinal Fat Mass, Males / Perigonadal Fat Mass, Males: male mice; for Total Body Mass, Males: tryptophan dose not given
Experimental: (§1) Food and water were provided ad libitum.
(§2) Prior to blood collection, animals were fasted for 4 hours to establish a physiological baseline. Blood was then collected from the retro-orbital plexus and processed using EDTA-K2-coated blood collection tubes (Milian Dutscher Group; Geneva, Switzerland). The resulting plasma was frozen and stored at −80° C. until used for analysis. A portion of each blood sample was used for blood glucose determination using an Abbott Freestyle Lite glucometer and glucose strips (Abbott Diabetes Care, Inc.; Alameda, Calif.). At the end of each study, animals were fasted and bled, as described above. The mice were then sacrificed, their overall body condition was assessed, and certain physiological parameters were measured. The inguinal and perigonadal fat pads, as well as liver of each mouse, were harvested by surgical resection, weighed, flash frozen, and stored at −80° C.

[2] = test system: plasma glucose; assay: Experiment 2: high-fat diet with first compounds, plasma glucose; details: for Plasma Glucose, Males: male mice
Experimental: as §1
as §2, with “Body mass and food consumption were monitored once a week for sixteen weeks. Prior” for “Prior”

[3] = test system: insulin; assay: Experiment 2: high-fat diet with first compounds, plasma insulin ELISA; details: for Plasma Insulin, Males: male mice
Experimental: as §1
as §2, with “Body mass and food consumption were monitored once a week for sixteen weeks. Prior” for “Prior”
(§3) Enzyme-linked immunosorbent assay (ELISA) kits were obtained commercially and used to measure plasma levels of IGF-1 (R&D Systems; Minneapolis, Minn.), adiponectin (R&D Systems), FGF-21 (Millipore Corp.; Billerica, Mass.), leptin (R&D Systems), growth hormone (Millipore Corp.), and insulin (ALPCO Diagnostics; Salem, N.H.). Tests were performed according to the manufacturers' recommendations and measured using a Molecular Devices SpectraMax M5 Microplate Reader (Molecular Devices LLC; San Jose, Calif.). Two technical replicates were performed for each sample and the statistical significance of the resulting values determined by unpaired two-tailed t-tests using the software package Prism 8 (Graph-Pad Software; La Jolla, Calif.).

[4] = test system: IGF-1; assay: Experiment 2: high-fat diet with first compounds, plasma IGF-1 ELISA; details: for Plasma IGF-1, Males: male mice
Experimental: as §1
as §2, with “Body mass and food consumption were monitored once a week for sixteen weeks. Prior” for “Prior”
as §3

[5] = test system: leptin; assay: Experiment 2: high-fat diet with first compounds, plasma leptin ELISA; details: for Plasma Leptin, Males: male mice
Experimental: as §1
as §2, with “Body mass and food consumption were monitored once a week for sixteen weeks. Prior” for “Prior”
as §3

[6] = test system: adiponectin; assay: Experiment 2: high-fat diet with first compounds, plasma adiponectin ELISA; details: high-fat diet 9 weeks, untreated = 100%, lysine 6.45%, OBS 4.3%, SPC 4.3% of food; for Plasma Adiponectin, Males: male mice
Experimental: as §1
as §2, with “Body mass and food consumption were monitored once a week for sixteen weeks. Prior” for “Prior”
as §3

[7] = test system: FGF-21; assay: Experiment 2: high-fat diet with first compounds, plasma FGF-21 ELISA; details: untreated = 100%
Experimental: as §1
as §2, with “Body mass and food consumption were monitored once a week for sixteen weeks. Prior” for “Prior”
as §3

[8] = test system: C57BL/6J mice; assay: Experiment 1: high-fat diet with selenium compounds, body mass, fat pad and liver mass; details: high-fat diet, untreated = 100%, sodium selenite 0.0073% of food, selenomethionine 0.0036% or 0.0073% (which not stated)
Experimental: (§4) All animal studies conducted were approved by the Institutional Animal Care and Use Committee (IACUC) of the Orentreich Foundation for the Advancement of Science, Inc. (Permit Number: 0511 MB). C57BL/6J mice (stock number 000664) were purchased from the Jackson Laboratories (Bar Harbor, Me.) and housed in a conventional animal facility maintained at 20±2° C., 50±10% relative humidity, with a 12 hr/12 hr light/dark photoperiod. Food and water were provided ad libitum. Upon arrival, mice were acclimatized for up to one week and fed Purina Lab Chow 5001 (Ralston Purina, Co.; St. Louis, Mo.).
At the beginning of the experiment, the mice were divided into 5 groups with each group being fed one of five isocaloric (5.3 kcal/gm) high-fat diets ad libitum for several weeks. Each high-fat diet comprising a base of 12% kcal protein, 31% kcal carbohydrate, and 57% kcal fat. The first group's diet was the control-fed diet and included the base and methionine in an amount that represented about 0.86% of the weight of the food (sometimes referred to as “control group,” “control-fed group,” or “group 1”). The second group's diet was the methionine-restricted group where the base-diet was restricted to 0.12% methionine as a percentage of the total weight of the food (sometimes referred to as “methionine-restricted group” or “group 2”). The third group was fed the base diet containing 0.86% methionine, which was supplemented with sodium selenite in an amount representing 0.0073% of the total weight of the food (sometimes referred to as “sodium selenite-supplemented group” or “group 3”). The fourth group was fed the base diet containing 0.86% methionine, supplemented with 0.0036% selenomethionine, as a percentage of the total food weight (sometimes referred to as “group 4”). The fifth group was fed the base diet containing 0.86% methionine as a percentage of the total weight of the food, supplemented with 0.0073% selenomethionine as a percentage of the total weight of the food (sometimes referred to as “group 5”). Amounts of selenium-containing compounds used for this and subsequent experiments were determined from pilot studies aimed at identifying minimal doses that still achieve high efficacy. […] The amount of selenomethionine administered to the animals in the fourth and fifth groups was approximately 1/200 and 1/100 times respectively, of the levels of sulfur-containing amino acids (i.e., methionine and cysteine) present in the subjects' diets.
as §2, with “Body mass and food consumption were monitored once a week for sixteen weeks. Prior” for “Prior”

[9] = test system: plasma glucose; assay: Experiment 1: high-fat diet with selenium compounds, plasma glucose; details: untreated = 100%, sodium selenite 0.0073% of food
Experimental: as §4
(§5) At the beginning of the experiment, the mice were divided into 5 groups with each group being fed one of five isocaloric (5.3 kcal/gm) high-fat diets ad libitum for several weeks. Each high-fat diet comprising a base of 12% kcal protein, 31% kcal carbohydrate, and 57% kcal fat. […] Amounts of selenium-containing compounds used for this and subsequent experiments were determined from pilot studies aimed at identifying minimal doses that still achieve high efficacy. […]
(§6) Body mass and food consumption were monitored once a week for sixteen weeks. […] The mice were then sacrificed, their overall body condition was assessed, and certain physiological parameters were measured. […]

[10] = test system: insulin; assay: Experiment 1: high-fat diet with selenium compounds, plasma insulin ELISA; details: untreated = 100%, sodium selenite 0.0073% of food
Experimental: as §4, §5, §6

[11] = test system: IGF-1; assay: Experiment 1: high-fat diet with selenium compounds, plasma IGF-1 ELISA; details: sodium selenite 0.0073% of food
Experimental: as §4
(§7) At the beginning of the experiment, the mice were divided into 5 groups with each group being fed one of five isocaloric (5.3 kcal/gm) high-fat diets ad libitum for several weeks. Each high-fat diet comprising a base of 12% kcal protein, 31% kcal carbohydrate, and 57% kcal fat. The first group's diet was the control-fed diet and included the base and methionine in an amount that represented about 0.86% of the weight of the food (sometimes referred to as “control group,” “control-fed group,” or “group 1”). […] Amounts of selenium-containing compounds used for this and subsequent experiments were determined from pilot studies aimed at identifying minimal doses that still achieve high efficacy. […]
as §6
as §3, with “Two technical replicates were performed for each sample and the statistical significance of the resulting values determined by unpaired two-tailed t-tests using the software package Prism 8 (Graph-Pad Software; La Jolla, Calif.).” left out

[12] = test system: leptin; assay: Experiment 1: high-fat diet with selenium compounds, plasma leptin ELISA
Experimental: as §4, §7, §6
as §3, with “Two technical replicates were performed for each sample and the statistical significance of the resulting values determined by unpaired two-tailed t-tests using the software package Prism 8 (Graph-Pad Software; La Jolla, Calif.).” left out

[13] = test system: adiponectin; assay: Experiment 1: high-fat diet with selenium compounds, plasma adiponectin ELISA; details: untreated = 100%, sodium selenite 0.0073% of food
Experimental: as §4, §5, §6

[14] = test system: FGF-21; assay: Experiment 1: high-fat diet with selenium compounds, plasma FGF-21 ELISA; details: untreated = 100%, sodium selenite 0.0073% of food
Experimental: as §4, §5, §6

[15] = female mice, 4.3% S-phenyl cysteine, high-fat diet, 9 week interval, p<0.001 vs untreated
[16] = female mice, high-fat diet 9 weeks, untreated = 100%, lysine 6.45%, OBS 4.3%, SPC 4.3% of food
[17] = high-fat diet 9 weeks, untreated = 100%, lysine 6.45%, O-benzyl serine 4.3%, S-phenyl cysteine 4.3% of food
[18] = high-fat diet 9 weeks, untreated = 100%, lysine 6.45%, OBS 4.3%, SPC 4.3% of food
[19] = female mice, 4.3% S-phenyl cysteine, high-fat diet, 9 week interval

With `N[C@@H](CSc1ccccc1)C(=O)O` [S-Phenyl-Cysteine, S-phenyl cysteine] the “accumulation of inguinal and perigonadal adipose tissue (FIGS. 6A, 6B)” value [1, 15] was “robust protection against the accumulation of adipose tissue”, the “total weight gain (FIG. 5)” value [1, 15] was “robust prevention of total weight gain” and the “Total Body Mass, Females” value ([1]; female mice, high-fat diet 9 weeks, untreated = 100%, lysine 6.45%, O-benzyl serine 4.3%, S-phenyl cysteine 4.3% of food) was 71%. The “Inguinal Fat Mass, Females” value [1, 16] was 23%, the “Perigonadal Fat Mass, Females” value [1, 16] was 25% and the “Total Body Mass, Males” value [1, 17] was 87%. The “Inguinal Fat Mass, Males” value [1, 18] was 44%, the “Perigonadal Fat Mass, Males” value [1, 18] was 35% and the “plasma glucose level over time (FIG. 7A)” value ([2]; female mice, 4.3% S-phenyl cysteine, high-fat diet, 9 week interval, more efficacious than methionine restriction) was “maintenance of low plasma glucose”. The “Plasma Glucose, Females” value [2, 16] was 71%, the “Plasma Glucose, Males” value [2, 18] was 70% and the “plasma insulin level over time (FIG. 7B)” value [3, 19] was “maintenance of low insulin levels”. The “Plasma Insulin, Females” value [3, 16] was 32%, the “Plasma Insulin, Males” value [3, 18] was 25% and the “plasma IGF-1 level over time (FIG. 8A)” value [4, 19] was “sustained reductions of plasma IGF-1 levels”. For the same compound, the “Plasma IGF-1, Females” value [4, 16] was 72%, the “Plasma IGF-1, Males” value [4, 18] was 66% and the “plasma leptin level over time (FIG. 8B)” value [5, 19] was “maintenance of low plasma leptin levels”. The “Plasma Leptin, Females” value [5, 16] was 16%, the “Plasma Leptin, Males” value [5, 18] was 11% and the “Plasma Adiponectin, Females” value ([6]; female mice) was 100%. The “Plasma Adiponectin, Males” value [6] was 213% and the “Plasma FGF-21, Females” value ([7]; female mice, high-fat diet 9 weeks, lysine 6.45%, OBS 4.3%, SPC 4.3% of food) was 181%.
For `O=[Se](O)O` [Sodium Selenite, sodium selenite], the “Inguinal Fat Mass, Females” value ([8]; female mice) was 19%, the “Perigonadal Fat Mass, Females” value ([8]; female mice) was 20% and the “Total Body Mass, Females” value ([8]; female mice, 16 weeks) was 66%. The “Inguinal Fat Mass, Males” value ([8]; male mice) was 17%, the “Perigonadal Fat Mass, Males” value ([8]; male mice) was 20% and the “Total Body Mass, Males” value ([8]; male mice, 16 weeks) was 60%. For the same compound, the “Plasma Glucose, Females” value ([9]; female mice) was 69%, the “Plasma Glucose, Males” value ([9]; male mice) was 71% and the “Plasma Insulin, Females” value ([10]; female mice) was 25%. For the same compound, the “Plasma Insulin, Males” value ([10]; male mice) was 19%, the “Plasma IGF-1, Females” value ([11]; female mice, untreated = 100%) was 35% and the “Plasma IGF-1, Males” value ([11]; male mice, untreated = 100%) was 63%. For the same compound, the “reduction of plasma IGF-1 levels as compared with control values” ([11]; at the conclusion of experiment 1) was 37%, the “Plasma Leptin, Females” value ([12]; female mice, high-fat diet, untreated = 100%, sodium selenite 0.0073% of food) was 17% and the “Plasma Leptin, Males” value ([12]; male mice, high-fat diet, untreated = 100%, sodium selenite 0.0073% of food) was 4%. For the same compound, the “reduction in circulating leptin as compared with controls” value ([12]; male mice, sodium selenite-supplemented high-fat diet for 16 weeks) was 96%, the “Plasma Adiponectin, Females” value ([13]; female mice) was 134% and the “Plasma Adiponectin, Males” value ([13]; male mice) was 128%. The “Plasma FGF-21, Females” value ([14]; female mice) was 3971% and the “Plasma FGF-21, Males” value ([14]; male mice) was 3045%.
For `N[C@@H](Cc1c[nH]c2ccccc12)C(=O)O` [Tryptophan, tryptophan], the “Total Body Mass, Males” value [1, 17] was 85%, the “Inguinal Fat Mass, Males” value [1, 18] was 50% and the “Perigonadal Fat Mass, Males” value [1, 18] was 39%. The “Plasma Glucose, Males” value [2, 18] was 94%, the “Plasma Insulin, Males” value [3, 18] was 56% and the “Plasma IGF-1, Males” value [4, 18] was 73%. The “Plasma Leptin, Males” value [5, 18] was 18%, the “Plasma Adiponectin, Males” value [6] was 118% and the “Plasma FGF-21, Males” value ([7]; male mice, high-fat diet, tryptophan dose not given) was 502%.

From patent US20220105127A1, “METHODS FOR PROVIDING THE BENEFITS OF METHIONINE RESTRICTION WITHOUT DIETARY RESTRICTION” (priority 2020, published 2022)
